{"source": "ChEMBL document CHEMBL1275551", "about": "“Identification of the genetic basis for clinical menadione-auxotrophic small-colony variant isolates of Staphylococcus aureus” (Antimicrob Agents Chemother, 2008)", "format_in_all_cases": "functional, organism-based", "key": {"Staphylococcus aureus [1]": {"test_system": "Staphylococcus aureus", "test": "Antibacterial activity against phenotypic revertant Staphylococcus aureus OM1b:F9 harboring G698T/Gly233Val and compensatory A776T/Lys259Ile mutant menB gene by Etest method"}, "Staphylococcus aureus [2]": {"test_system": "Staphylococcus aureus", "test": "Antibacterial activity against phenotypic revertant Staphylococcus aureus OM1b:F8 harboring 694-702 nucleotide deletion in menB gene by Etest method"}, "Staphylococcus aureus [3]": {"test_system": "Staphylococcus aureus", "test": "Antibacterial activity against wild type Staphylococcus aureus OM1b:F5 phenotypic revertant by Etest method"}, "Staphylococcus aureus [4]": {"test_system": "Staphylococcus aureus", "test": "Antibacterial activity against phenotypic revertant Staphylococcus aureus OM1b:F2 harboring G698C Val233Ala compensatory mutation in menB gene by Etest method"}, "Staphylococcus aureus [5]": {"test_system": "Staphylococcus aureus", "test": "Antibacterial activity against Staphylococcus aureus isolate A22616/5 by Etest method"}, "Staphylococcus aureus [6]": {"test_system": "Staphylococcus aureus", "test": "Antibacterial activity against Staphylococcus aureus isolate OM1a by Etest method"}, "Staphylococcus aureus [7]": {"test_system": "Staphylococcus aureus", "test": "Antibacterial activity against small-colony variant Staphylococcus aureus isolate OM1b harboring menB G698T Gly233Val mutant gene by Etest method"}, "Staphylococcus aureus [8]": {"test_system": "Staphylococcus aureus", "test": "Antibacterial activity against Staphylococcus aureus isolate OM299/1 by Etest method"}, "Staphylococcus aureus [9]": {"test_system": "Staphylococcus aureus", "test": "Antibacterial activity against small-colony variant Staphylococcus aureus isolate A22616/5 harboring 55-63 nucleotide deletion in menB gene by Etest method"}, "Staphylococcus aureus [10]": {"test_system": "Staphylococcus aureus", "test": "Antibacterial activity against small-colony variant Staphylococcus aureus isolate OM299/1 harboring -1 frame shift mutation in 687 nucleotide of menB gene by Etest method"}}, "data": [{"sequence": "GENTAMICIN", "values": [{"measurement": "MIC", "setting": "Staphylococcus aureus [1]", "value": 0.125, "unit": "µg/mL"}, {"measurement": "MIC", "setting": "Staphylococcus aureus [2]", "value": 0.125, "unit": "µg/mL"}, {"measurement": "MIC", "setting": "Staphylococcus aureus [3]", "value": 0.125, "unit": "µg/mL"}, {"measurement": "MIC", "setting": "Staphylococcus aureus [4]", "value": 0.125, "unit": "µg/mL"}, {"measurement": "MIC", "setting": "Staphylococcus aureus [5]", "value": 0.19, "unit": "µg/mL"}, {"measurement": "MIC", "setting": "Staphylococcus aureus [6]", "value": 0.125, "unit": "µg/mL"}, {"measurement": "MIC", "setting": "Staphylococcus aureus [7]", "value": 8, "unit": "µg/mL"}, {"measurement": "MIC", "setting": "Staphylococcus aureus [8]", "value": 0.32, "unit": "µg/mL"}, {"measurement": "MIC", "setting": "Staphylococcus aureus [9]", "value": 12, "unit": "µg/mL"}, {"measurement": "MIC", "setting": "Staphylococcus aureus [10]", "value": 16, "unit": "µg/mL"}]}]}
